The values below come from PubChem BioAssay AID1959 (Broad Institute, 2009).

Active and inactive are the calls of the source.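 The calls were made as follows: active = growth-inhibition EC50 no more than tenfold above the top tested dose; inconclusive = flat fit between 30% and 70% inhibition, or unreliable fit; inactive = EC50 more than tenfold above the top tested dose.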

In this assay the test system is E. coli NEB5alpha growth, BacTiter-Glo luminescence, 4 h. In words: Escherichia coli growth inhibition, dose response, counter-screen for MEX-5/POS-1 RNA-binding inhibitor project, luminescence, NEB5alpha (AID 1959;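 also: pUC19-transformed ampicillin-resistant cells grown in LB with ampicillin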). (In general: A counterscreen serves to expose hits that act by an unwanted route or on another target.)
What is called EC50 is the midpoint of the concentration-response curve. In the case of `COc1ccc(N=Cc2c(O)c3ccccc3n2C(C)=O)cc1`, the EC50 is > 11 µM (inactive).

On to `NS(=O)(=O)c1ccc(Nc2nc(-c3ccc(O)cc3O)cs2)cc1`, for which the EC50 is > 11 µM (inactive).

For `O=C(O[C@@H]1Cc2c(O)cc(O)cc2O[C@@H]1c1cc(O)c(O)c(O)c1)c1cc(O)c(O)c(O)c1`, the EC50 is > 11 µM (inactive).

On to `CNC(=O)NC(=O)COC(=O)c1ccc(-n2c(C)ccc2C)cc1`, for which the EC50 is > 11 µM (inactive).

Regarding `O=C1c2cccc3c(N4CCCCC4)ccc(c23)C(=O)N1c1ccccn1`, the EC50 was > 11 µM (inactive).

As to `O=C1c2cccc3c(O)ccc(c23)C(=O)N1Cc1ccccc1`, the EC50 is > 11 µM (inactive).

Turning to `O=C(N/N=C/c1cc(Cl)cc([N+](=O)[O-])c1O)c1ccccc1NS(=O)(=O)c1cccs1`, the EC50 is > 11 µM (inactive).

On to `Cc1nn(-c2ccccc2)c(N2CCCC2)c1/C=N/NC(=O)c1cc(-c2cccnc2)nc2ccccc12`, for which the EC50 was > 11 µM (inactive).

With `CSc1nc(=S)c2[nH]c(=S)[nH]c2[nH]1`, the EC50 was > 11 µM (inactive).

Turning to `CCCCN(C)C(=O)CCC(=O)NNc1nc2ccccc2c2nc(C)nn12`, the EC50 was > 11 µM (inactive).

Regarding `CCCCNC(=O)c1cc2c(=O)n3cccc(C)c3nc2n(Cc2ccncc2)c1=N`, the EC50 is > 11 µM (inactive).

In the case of `Oc1ccc(CCNc2c3ccccc3nc3ccccc23)cc1O`, the EC50 was > 11 µM (inactive).

For the compound `COc1ccc(/C=C/C(=O)c2c(O)n(CCC3=CCCCC3)c(=O)[nH]c2=O)cc1OC`, the EC50 was > 11 µM (inactive).

Turning to `COc1ccc(N=Cc2c(O)ccc3ccccc23)cc1`, the EC50 was > 11 µM (inactive).

For `O=C(N/N=C/c1c(O)ccc2ccccc12)Nc1ccccc1`, the EC50 is > 11 µM (inactive).

For the compound `Cc1cc(/C=c2/sc3nc4ccccc4n3c2=O)c(C)n1-c1ccccn1`, the EC50 is > 11 µM (inactive).

Turning to `O=C(NCCN1CCOCC1)c1cccn2c(=O)c3c4c(sc3nc12)CCCC4`, the EC50 was > 11 µM (inactive).

Take `O=C(N/N=C/c1ccc(O)c(O)c1)N/N=C/c1ccc(O)c(O)c1`: the EC50 was > 11 µM (inactive).
